From patent publication US20150025031A1, “METABOLIC DOWNREGULATION FOR CELL SURVIVAL” (WAKE FOREST UNIVERSITY HEALTH SCIENCES, priority 2012, published 2015) come the findings set out here.

Assay [1] deals with C2C12 cells, murine myoblasts. Nature of the assay: MTS metabolic activity of C2C12 cells under hypoxia with adenosine (Example 1). The class given is cell-based. Here is the method: Another group receiving daily doses of adenosine ([…], achieved by serial dilution) was incubated for up to 7 days under hypoxia and then placed back into normoxic conditions without additional supply of adenosine. Adenosine was refreshed by the daily exchange of media in which adenosine was completely dissolved. Media to be used under hypoxia was placed in the hypoxic chamber 24 hr prior to use for deoxygenation down to 2% O2. The metabolic activity of viable cells at each pre-determined time point was assessed using an MTS assay, which measures mitochondrial activity of cells.

The test system of a further assay is C2C12 cells. Nature of the assay: MTS metabolic activity per cell, C2C12 under 0.1% hypoxia. In kind it is cell-based, murine. The note with it: 5 mM adenosine. Here is the method: Hypoxic condition was maintained with a gas mixture containing 0.1% O2, 5% CO2 and 94.9% N2 at 37° C. and full humidity in an X-Vivo System (Biospherix). […] The hypoxic groups were then placed to the hypoxic chamber and incubated up to day 11, whereas the normoxic group continued to be incubated in the regular incubator. No medium change was made on both normoxic and hypoxic groups up to day 11. After transfer to normoxic conditions, cells were cultured in the regular incubator with an exchange of no adenosine-containing, fresh medium every third day.
Mitochondrial metabolic activity of viable cells was assessed using a 3-(4,5-dimethylthiazol-2-yl)-5-(3-carboxymethoxyphenyl)-2-(4-sulfophenyl)-2H-tetrazolium (MTS) assay (Promega). Cells were rinsed with PBS three times followed by the addition of 120 μL of MTS reagent to each well. After an hour of incubation, optical density (OD) of a brown formazan product by dehydrogenase enzymes in metabolically active cells was measured with a microplate reader at 490 nm. The mean OD value obtained from media blanks was standardized as […]. For some analyses, metabolic activity measured at each time point was normalized by the cell number obtained from PicoGreen assay as previously described. The total metabolic activity represented by the area under the curve over time was computed using Origin Pro v. 8 (Origin Lab Corporation).

`Nc1ncnc2c1ncn2[C@@H]1O[C@H](CO)[C@@H](O)[C@H]1O` [adenosine]: the “restoration of normal proliferation rate after long-term exposure” value in assay [1] (22 days under adenosine, various doses) is “still demonstrated the ability to restore its normal proliferation rate”. Besides, the “cellular (metabolic) activity under hypoxic conditions” value in assay [1] (C2C12, 0.1% O2, daily adenosine up to 7 days, MTS) is “maintained a steady state of cellular activity”. Also, in assay [1] (C2C12, 0.1% O2 hypoxia, MTS metabolic activity), the “minimum effective concentration of adenosine” value is “about 1 mM”. In assay [1] (adenosine removed at day 7, back to normoxia), the “resumption of normal metabolic activity after adenosine removal” value is on record as “resumed their normal metabolic activity two days after adenosine was removed at day 7”. The “metabolic activity in early hypoxic phase” value in the assay on C2C12 cells (0.1% hypoxia, MTS per cell) is listed as “suppressed initially up to day 5”. The “metabolic activity maintained, of the initial metabolic activity” value in the assay with C2C12 cells (0.1% hypoxia, day 11, MTS per cell) was “approximately 68%”. Further, the “metabolic activity after transfer to normoxic conditions” value in the assay on C2C12 cells (after 11 days hypoxia) was “restored to a level equivalent to that in normoxic cells”.
